# In US10441537B2, “Unit doses, aerosols, kits, and methods for treating heart conditions by pulmonary administration” (InCarda Therapeutics, Inc., priority 2017, dated 2019):
# Read-outs that look alike come from different tables or passages of the source.
# Assays:
# [1] = test system: induced atrial fibrillation; experiment: Conversion of ACh/burst-pacing-induced AF in intact porcine model (Example 6); type: in vivo, pigs
# Procedure: After 30-min recovery, the alternate intervention was tested. Times for conversion to normal sinus rhythm were compared.
# healthy volunteers [2] = experiment: Phase 1 study: auscultation, respiration rate, chest x-rays; type: in vivo, human
# Procedure: Pulmonary safety was assessed by performing lung spirometry tests and measuring peripheral oxygen saturation (SpO2%) prior to dosing and at various times after completion of the inhalation. Lung spirometry tests evaluated all lung function parameters, including forced vital capacity (FVC), forced expiratory volume in 1 second (FEV1), peak expiratory flow (PEF), and forced expiratory flow at 25% and 75% intervals (FEF25-75). Auscultation and respiration rate were also measured prior to dosing and at various times after inhalation. Chest x-rays were performed on subjects before and after flecainide inhalation.
# healthy volunteers [3] = details: in vivo
# Excerpt: (§1) 3 cohorts of subjects, in total 34 healthy adult volunteers, were recruited for Part A study.
# (§2) Part B was an open label non-randomized crossover in a cohort of 6 evaluable healthy adult volunteers.
# Adverse events were monitored and recorded.
# healthy volunteers [4] = details: in vivo, iv
# Procedure: as §1, §2
# In addition, the effects of changing posture from semi-recumbent to seated upright, vice-versa and during inhalation on HR and BP were assessed (Cohort 5).
# [5] = test system: induced atrial fibrillation; experiment: Conversion of phenylephrine/burst-pacing-induced AF in anesthetized beagle dogs (Example 7); type: in vivo; details: for Time to NSR: IT
# Procedure: The study was carried out in anesthetized healthy adult beagle dogs with induced AF. Acute AF was induced using the combination of phenylephrine ([…]), to increase heterogeneity of atrial refractory periods via increased loading and through a baroreceptor-mediated increase in parasympathetic efferent activity, and right atrial burst pacing (40-50 Hz for ˜15 min). The AF induced using this method was, in general, stable for more than 30 mins.
# The cardiac rhythm was monitored prior to, during AF, and up to 10 min post-dosing and/or until conversion to NSR.
# physchem = details: water
# [6] = test system: induced atrial fibrillation; experiment: Induced atrial fibrillation model in anesthetized dogs, intratracheal (IT) administration; type: in vivo
# Procedure: Atrial Fibrillation Model: Anesthesia/Surgical Preparation: A venous catheter was placed in a peripheral vessel (i.e., cephalic) for administration of anesthetic. […] Following induction, animals were endotracheally intubated and mechanically ventilated (˜12 breaths/minute with a tidal volume of 200-300 mL). Subsequently, a cut-down on a jugular vein permitted introduction of a pacing lead into the right atrium. Transthoracic electrodes forming ECG lead II were placed. For test/vehicle article delivery, a 4F catheter was introduced through the trachea and wedged into a small airway, and a venous catheter was placed in a peripheral vessel (i.e., cephalic). […] Approximately 5 min after administration of this parasympathomimetic was started; the following experiments were performed: […] Observations were made for up to 10 minutes. […] Vehicle was only water.
# [7] = Plasma concentrations in LV, femoral vein and pulmonary artery of dogs (Example 7); type: in vivo
# [8] = test system: anesthetized Yorkshire pigs; experiment: PD responses (HR, MAP, ECG intervals) in anesthetized Yorkshire pigs, IV vs IT; type: in vivo
# Procedure: All catheters were positioned under fluoroscopic guidance. […] Data are reported as means+ SEM. Statistical analyses were performed using the SAS system (9.4) to apply ANOVA with a post-hoc Dunnett's test. Statistical significance was assumed at p<0.05.
# [9] = test system: induced atrial fibrillation; experiment: ACh and burst-pacing-induced AF duration in pigs (Example 5); type: in vivo; details: IT 1.5 mg/kg
# Procedure: At one min after intrapericardial administration of ACh (1 ml of 100 mM), burst pacing was performed to initiate AF in the control cohort (FIG. 60). In the experimental cohort, after ACh and burst-pacing-induced AF, a stable period of 2 min of AF was allowed (FIG. 60). […] Table 12; FIG. 61).
# [10] = before and after inhalation of 20, 30, 40 mg eTLD
compound,measurement,setting,value
"O=C(NCC1CCCCN1)c1cc(OCC(F)(F)F)ccc1OCC(F)(F)F (stereo not shown) [flecainide, flecainide acetate]",time within which plasma concentration reached levels required for conversion,[1]; IT 0.75 mg/kg and 1.5 mg/kg (FIG. 66A),≤ 10 min
same,dominant frequency of AF,[1]; IT 0.75 mg/kg and 1.5 mg/kg (FIG. 67),reduced the dominant frequency of AF
same,AF conversion in representative electrograms,[1]; IT 1.5 mg/kg (FIG. 65),5 min
same,MAP and ventricular rate after conversion,[1]; IT 1.5 mg/kg or 0.75 mg/kg,restored MAP and ventricular rate to baseline values
same,respiratory rate,"healthy volunteers [2]; Cohorts 1, 2, 3 and 5",minimal or no changes in respiratory rate
same,Auscultation,healthy volunteers [2]; [10],normal in all subjects
same,Chest x-rays,healthy volunteers [2]; [10],normal and showed no changes
same,respiration rate,healthy volunteers [2]; [10],No changes in respiration rate
same,Adverse Event: Cough,"healthy volunteers [3]; both, human",1
same,Adverse Event: Lightheadedness,"healthy volunteers [3]; both, human",1
same,study-drug related Cough,"healthy volunteers [3]; both, human",3 events in 3/25 subjects (12%)
same,study-drug related Dry mouth,"healthy volunteers [3]; both, human",3 events in 3/25 subjects (12%)
same,study-drug related Dysgeusia,"healthy volunteers [3]; both, human",2 events in 2/25 subjects (8%)
same,study-drug related Dyspnoea (shortness of breath),"healthy volunteers [3]; both, human",4 events in 4/25 subjects (16%)
same,study-drug related Oropharyngeal discomfort,"healthy volunteers [3]; both, human",10 events in 10/25 subjects (40%)
same,study-drug related dizziness,"healthy volunteers [3]; both, human",3 events in 3/25 subjects (12%)
same,study-drug related headache,"healthy volunteers [3]; both, human",3 events in 2/25 subjects (8%)
same,average events per subject,healthy volunteers [3]; human,2
same,"probably study-drug related oropharyngeal discomfort, subjects",healthy volunteers [3]; human,4
same,study-drug related paresthesia oral,healthy volunteers [3]; human,3 events in 3 subjects
same,average events per subject,"healthy volunteers [3]; human, iv",7
same,hypotension (systolic BP) for which the IV infusion had to be interrupted,"healthy volunteers [3]; human, iv",< 65 mmHg
same,severe and moderate intensity AEs probably related to the study drug,"healthy volunteers [3]; human, iv",1 severe and 2 moderate intensity AEs
same,study-drug related application site coldness,"healthy volunteers [3]; human, iv",2 occurrences in 2 subjects
same,study-drug related dizziness,"healthy volunteers [3]; human, iv",6 events in 6 subjects
same,study-drug related headache,"healthy volunteers [3]; human, iv",5 events in 5 subjects
same,"study-drug related peripheral coldness, palpitations, and chest discomfort","healthy volunteers [3]; human, iv",each occurring 2 times 1 subject
same,Number of Moderate or Severe TEAEs,"healthy volunteers [3]; human, iv, 2 mg/kg",4
same,Number of Related TEAEs,"healthy volunteers [3]; human, iv, 2 mg/kg",35
same,"Number of Related, Moderate or Severe TEAEs","healthy volunteers [3]; human, iv, 2 mg/kg",4
same,Number of SAEs,"healthy volunteers [3]; human, iv, 2 mg/kg",0
same,Number of Subjects with at least one Moderate or Severe TEAE,"healthy volunteers [3]; human, iv, 2 mg/kg",2 subjects (29%) n (%)
same,Number of Subjects with at least one TEAE,"healthy volunteers [3]; human, iv, 2 mg/kg",7 (100) n (%)
same,Number of Treatment-Emergent Adverse Events,"healthy volunteers [3]; human, iv, 2 mg/kg",49
same,TEAE: Chest discomfort,"healthy volunteers [3]; human, iv, 2 mg/kg",3 such events also occurred in 1 subject n (%) [events]
same,TEAE: Dizziness,"healthy volunteers [3]; human, iv, 2 mg/kg","6 events in 6/7 subjects, 86% n (%) [events]"
same,TEAE: Headache,"healthy volunteers [3]; human, iv, 2 mg/kg","6 events in 5/7 subjects, 71% n (%) [events]"
same,"remaining study-drug related events (cough, dysphonia, dyspnoea, oral hypoesthesia, chest discomfort)","healthy volunteers [3]; human, po",once in 1 subject each
same,serious adverse events,healthy volunteers [3],No serious adverse events were reported
same,tolerability,healthy volunteers [3],well tolerated
same,Number of SAEs,"healthy volunteers [3]; iv, 2 mg/kg",no SAEs reported
same,decrease in systolic pressure,healthy volunteers [4],≤ 18 mmHg
same,maximal increase in HR,healthy volunteers [4],7 bpm
same,transient decrease in systolic pressure,healthy volunteers [4],9 mmHg
same,HR,healthy volunteers [4]; 2 mg/kg,An increase in HR was observed
same,systolic and diastolic BP,healthy volunteers [4]; 2 mg/kg,Decreases in systolic and diastolic BP were observed
same,Time to NSR,"[5]; Animal 002, dose 0.75 (0.25 + 0.5) mg/kg",52 s
same,Time to NSR,"[5]; Animal 003, dose 0.75 mg/kg",12 s
same,Time to NSR,"[5]; Animal 004, dose 0.75 mg/kg",23 s
same,Time to NSR,"[5]; Animal 005, dose 0.75 mg/kg",62 s
same,Time to NSR,"[5]; Animal 006, dose 1.0 (0.75 + 0.25) mg/kg",83 s
same,"effects in BP, VR and LV dP/dtmax upon conversion, IV vs IT",[5]; IV compared with IT administration,"greater effects in BP, VR and LV dP/dtmax"
same,solubility,physchem,~30 mg/mL
same,ECG trace: Afib conversion,[6]; 2 mg/kg body weight (FIG. 12),Afib converting as soon as dosing occurred
same,ECG trace: Afib conversion,"[6]; 4 mg/kg body weight, intra-tracheal instillation (FIG. 11)",Afib converting into normal sinus rhythm
same,conversion of Atrial Fibrillation to normal sinus rhythm,[6]; IT bolus,rapidly converted the Atrial Fibrillation to normal sinus rhythm
same,cardiovascular effect when given by intratracheal instillation (summary),"[6]; dog, in vivo",clear cardiovascular effect
same,ventricular rate,[6]; large pulmonary doses,slower ventricular rates
same,drop in mean arterial pressure,[6]; pulmonary dose 2-4 mg/kg,None to minimal drop in mean arterial pressure
same,conversion of induced atrial fibrillation to normal sinus rhythm,[6]; pulmonary dose 2-4 mg/kg body weight,converted the induced atrial fibrillation to normal sinus rhythm
same,plasma concentrations transiently higher in the LV than in the PA (summary),[7]; IT,~2.5 fold
same,plasma levels higher in the LV than in the systemic venous circulation,"[7]; IT, at the time of conversion",~2 fold
same,plasma concentrations transiently higher in the PA than in the LV (summary),[7]; IV infusion,~3.5 fold
same,time after administration at which LV and PA concentrations were nearly equal,[7]; IV or IT,4 to 10 min
same,mean arterial pressure,"[8]; IT 0.75 mg/kg, baseline 111±3.6 mmHg, p=0.9112",not significantly altered
same,heart rate,"[8]; IT 0.75 mg/kg, baseline 111±6.4 bpm, p=0.9970",not significantly altered
same,PR interval,"[8]; IT 0.75 mg/kg, baseline 130±5.3 ms, p=0.9351",not significantly changed
same,JTc interval,"[8]; IT 0.75 mg/kg, baseline 354±12.0 ms, p=0.7605",not significantly changed
same,QTc interval,"[8]; IT 0.75 mg/kg, baseline 435±12.9 ms, p=0.5505",not significantly changed
same,mean arterial pressure,"[8]; IT 1.5 mg/kg, baseline 108±9.4 mmHg, p=0.9894",not significantly altered
same,heart rate,"[8]; IT 1.5 mg/kg, baseline 118±13.2 bpm, p=0.9999",not significantly altered
same,PR interval,"[8]; IT 1.5 mg/kg, baseline 127±2.3 ms, p=0.0819",not significantly changed
same,JTc interval,"[8]; IT 1.5 mg/kg, baseline 364±11.5 ms, p=0.9968",not significantly changed
same,QTc interval,"[8]; IT 1.5 mg/kg, baseline 436±7.1 ms, p=0.1510",not significantly changed
same,heart rate,"[8]; IV 2 mg/kg, baseline 103±1.9 bpm, ANOVA p=0.9936, 30 min",not significantly altered
same,mean arterial pressure,"[8]; IV 2 mg/kg, baseline 105±6.7 mmHg, p=0.8852",not significantly altered
same,PR interval,"[8]; IV 2 mg/kg, baseline 127±7.8 ms, p=0.5161",not significantly changed
same,JTc interval,"[8]; IV 2 mg/kg, baseline 367±7.4 ms, p=0.9686",not significantly changed
same,QTc interval,"[8]; IV 2 mg/kg, baseline 442±7.9 ms, p=0.35",not significantly changed
same,recurrence of AF after restoration of sinus rhythm,[9]; 30-min window of observation,no recurrence of AF occurred
same,AF duration,[9]; Pig 236 (No drug 10),4 min
same,AF duration,[9]; Pig 238 (No drug 12),3 min
same,AF duration,[9]; Pig 239 (No drug 12),3 min
same,pH of solution in water,2.6 mg/mL,5.0
same,appearance of solution,"distilled water, diltiazem hydrochloride 50 mg/ml, flecainide acetate 30 mg/ml",clear with no visible particulate matter
